In ChEMBL document CHEMBL1201862, “PubChem BioAssay data set” (2004):
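Following 48 hours of exposure in 96-well plates, responses at five concentrations were used to interpolate endpoints linearly. GI50 marks 50% less growth.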 Active and inactive are the calls of the source. Rule as the data show it: active = GI50 up to about 1.1 µM and inactive = higher.

Legend:
Assay in all cases: DTP human tumour cell line panel, 48 h
HT-29 = system: HT-29
MOLT-4 = system: MOLT-4
HCT-15 = system: HCT-15
HL-60 = system: HL-60
SK-MEL-2 = system: SK-MEL-2
LOX IMVI = system: LOX IMVI
DU-145 = system: DU-145
SN12C = system: SN12C
TK-10 = system: TK-10
SF-295 = system: SF-295
OVCAR-5 = system: OVCAR-5
RXF 393 = system: RXF 393
CCRF-CEM = system: CCRF-CEM
EKVX = system: EKVX
UACC-62 = system: UACC-62
HOP-92 = system: HOP-92
NCI-H460 = system: NCI-H460
A549 = system: A549
T47D = system: T47D
MDA-MB-435 = system: MDA-MB-435

Structure (SMILES) | GI50 (HT-29) | GI50 (MOLT-4) | GI50 (HCT-15) [µM] | GI50 (HL-60) | GI50 (SK-MEL-2) | GI50 (LOX IMVI) | GI50 (DU-145) | GI50 (SN12C) | GI50 (TK-10) | GI50 (SF-295) | GI50 (OVCAR-5) | GI50 (RXF 393) | GI50 (CCRF-CEM) | GI50 (EKVX) | GI50 (UACC-62) | GI50 (HOP-92) | GI50 (NCI-H460) | GI50 (A549) | GI50 (T47D) | GI50 (MDA-MB-435)
COc1cccc(Nc2n[nH]c(NS(=O)(=O)c3cc(C)c(Cl)cc3S)n2)c1 | > 100 µM (inactive) | > 100 µM (inactive) | > 100 | > 100 µM (inactive) | > 100 µM (inactive) | > 100 µM (inactive) | > 100 µM (inactive) | > 100 µM (inactive) | > 100 µM (inactive) | > 100 µM (inactive) | > 100 µM (inactive) | > 100 µM (inactive) | > 100 µM (inactive) | > 100 µM (inactive) | > 100 µM (inactive) | > 100 µM (inactive) | > 100 µM (inactive) | > 100 µM (inactive) | > 100 µM (inactive) | > 100 µM (inactive)
Cc1nc(SCC(N)=O)c2sc(=S)n(-c3ccccc3)c2n1 | > 10 µM (inactive) | > 10 µM (inactive) | > 10 | > 10 µM (inactive) | > 10 µM (inactive) | > 10 µM (inactive) | > 10 µM (inactive) | > 10 µM (inactive) | > 10 µM (inactive) | > 10 µM (inactive) | > 10 µM (inactive) | > 10 µM (inactive) | > 10 µM (inactive) | > 10 µM (inactive) | > 10 µM (inactive) | > 10 µM (inactive) | > 10 µM (inactive) | > 10 µM (inactive) | > 10 µM (inactive) | > 10 µM (inactive)
O=C(CSc1nc2ccc(I)cc2c(=O)n1Cc1ccccc1)NN1C(=O)CCC1=O | 48.6 µM (inactive) | 42.1 µM (inactive) | 22.5 | 28.6 µM (inactive) | 47 µM (inactive) | 59.3 µM (inactive) | > 100 µM (inactive) | 35.7 µM (inactive) | 84.5 µM (inactive) | 37.9 µM (inactive) | > 100 µM (inactive) | 25.5 µM (inactive) | 34.5 µM (inactive) | 34.1 µM (inactive) | 55.7 µM (inactive) | 25.5 µM (inactive) | 63.8 µM (inactive) | 49.4 µM (inactive) | 40 µM (inactive) | 64.1 µM (inactive)
Oc1c2cc(Cl)cc1COCc1cc(Cl)cc(c1O)COCc1cc(Cl)cc(c1O)COC2 |  |  | 36 | 2.88 µM (inactive) | > 100 µM (inactive) | 36.7 µM (inactive) | 28.2 µM (inactive) |  | 46.8 µM (inactive) | > 100 µM (inactive) | 40.3 µM (inactive) | 18.3 µM (inactive) | 9.44 µM (inactive) | 54 µM (inactive) | 56.5 µM (inactive) | 6.9 µM (inactive) | 22.9 µM (inactive) | 34.8 µM (inactive) | 15.7 µM (inactive) | 40.7 µM (inactive)
CCSCC(=O)N1CCc2c([nH]c3ccccc23)C1=O | > 100 µM (inactive) | > 100 µM (inactive) | > 100 | > 100 µM (inactive) | > 100 µM (inactive) | > 100 µM (inactive) | > 100 µM (inactive) | > 100 µM (inactive) | > 100 µM (inactive) | > 100 µM (inactive) | 91 µM (inactive) | > 100 µM (inactive) | > 100 µM (inactive) | 12.6 µM (inactive) | 97.5 µM (inactive) | 22.9 µM (inactive) | > 100 µM (inactive) | > 100 µM (inactive) | > 100 µM (inactive) | > 100 µM (inactive)
N/C(=N\O)N/N=C/c1ccc2c(c1)OCO2 | 36.1 µM (inactive) | 24.8 µM (inactive) | 22 | 18.2 µM (inactive) | 22 µM (inactive) | 17.4 µM (inactive) | 7.16 µM (inactive) | 34.4 µM (inactive) | 55 µM (inactive) | 33.9 µM (inactive) | 24.7 µM (inactive) | 29 µM (inactive) | 19.4 µM (inactive) | 8.85 µM (inactive) | 13.5 µM (inactive) | 20.8 µM (inactive) | 27 µM (inactive) | 14.7 µM (inactive) | 46 µM (inactive) | 31.4 µM (inactive)
CCN1CCC(O)(/C=C/c2ccc(C)cc2)C(C(=O)/C=C/c2ccc(C)cc2)C1 (configuration not stated) | 2.61 µM (inactive) | 1.63 µM (inactive) | 4.06 | 1.79 µM (inactive) | 3.75 µM (inactive) | 1.31 µM (inactive) | 11.8 µM (inactive) | 7.69 µM (inactive) | 5.45 µM (inactive) | 10.6 µM (inactive) | 10.5 µM (inactive) | 2.79 µM (inactive) | 1.73 µM (inactive) | 13.2 µM (inactive) | 3.08 µM (inactive) | 6.81 µM (inactive) | 4.45 µM (inactive) | 8.24 µM (inactive) | 2.82 µM (inactive) | 2.93 µM (inactive)
CC(=C(C(=O)O)C(=O)O)c1cc(-c2cccs2)cc(-c2ccc(Cl)cc2)c1O | 17.3 µM (inactive) | 6.41 µM (inactive) | 14 | 9.71 µM (inactive) | 32.4 µM (inactive) | 13.2 µM (inactive) | 14.4 µM (inactive) | 15.9 µM (inactive) | 16.2 µM (inactive) | 17.9 µM (inactive) | 29.4 µM (inactive) | 14 µM (inactive) | 18.7 µM (inactive) | 17.3 µM (inactive) | 15.3 µM (inactive) | 14.9 µM (inactive) | 17.1 µM (inactive) | 20.7 µM (inactive) | 6.68 µM (inactive) | 15.6 µM (inactive)
CN(C)c1ccc(/C=C(\C#N)c2nc(-c3cc4ccccc4oc3=O)cs2)cc1 | > 50 µM (inactive) | > 50 µM (inactive) | > 50 | > 50 µM (inactive) | 12 µM (inactive) | > 50 µM (inactive) | > 50 µM (inactive) | > 50 µM (inactive) | 8.95 µM (inactive) | 10.6 µM (inactive) | > 50 µM (inactive) | 12.3 µM (inactive) | > 50 µM (inactive) | > 50 µM (inactive) | 8.61 µM (inactive) | 5.12 µM (inactive) | > 50 µM (inactive) | > 50 µM (inactive) | > 50 µM (inactive) | > 50 µM (inactive)
CC1=CC2=C(OCO1)C(=O)c1ccccc1C2=O | 7.4 µM (inactive) | 6.84 µM (inactive) | 14.8 | 3.95 µM (inactive) | 0.652 µM (active) | 1.02 µM (active) | 2.16 µM (inactive) | 5.68 µM (inactive) | 28.1 µM (inactive) | 4.17 µM (inactive) | 6.21 µM (inactive) | 4.61 µM (inactive) | 10.1 µM (inactive) | 46.7 µM (inactive) | 5.11 µM (inactive) | 10.4 µM (inactive) | 7.11 µM (inactive) | 6.08 µM (inactive) | 2.43 µM (inactive) | 1.46 µM (inactive)
COc1ccc(N2C(=O)C3c4[nH]c5ccc(OCc6ccccc6)cc5c4C4CCC(C(C)C)CC4C3C2=O)cc1 (configuration not stated) | > 100 µM (inactive) | 18.2 µM (inactive) | > 100 | 1.78 µM (inactive) | 15.2 µM (inactive) | 80.5 µM (inactive) | > 100 µM (inactive) | > 100 µM (inactive) | > 30.3 µM (inactive) | 6.4 µM (inactive) | > 40 µM (inactive) | 13.4 µM (inactive) | 12.6 µM (inactive) | 11 µM (inactive) | 29 µM (inactive) | 32.1 µM (inactive) | 13.9 µM (inactive) | 50.6 µM (inactive) | 33.2 µM (inactive) | > 100 µM (inactive)
CCC1(OC(=O)CN)C(=O)OCc2c1cc1n(c2=O)Cc2cc3ccccc3nc2-1 (configuration not stated) |  | 0.01 µM (active) | 0.149 | 0.00764 µM (active) | 0.0794 µM (active) | < 0.0102 µM (active) | 0.01 µM (active) | 0.0113 µM (active) | 0.516 µM (active) | 0.01 µM (active) | 0.0457 µM (active) | 0.0378 µM (active) | 0.01 µM (active) | 0.598 µM (active) | 0.01 µM (active) | 0.547 µM (active) | 0.01 µM (active) | 0.011 µM (active) | 0.012 µM (active) | 0.0564 µM (active)
O=C(O)c1ccc(NS(=O)(=O)Cc2ccccc2)cc1 | > 100 µM (inactive) | > 100 µM (inactive) | > 100 | > 100 µM (inactive) | > 100 µM (inactive) | > 100 µM (inactive) | > 100 µM (inactive) | > 100 µM (inactive) | > 100 µM (inactive) | > 100 µM (inactive) | > 100 µM (inactive) | > 100 µM (inactive) | > 100 µM (inactive) | > 100 µM (inactive) | > 100 µM (inactive) | > 100 µM (inactive) | > 100 µM (inactive) | > 100 µM (inactive) | > 100 µM (inactive) | > 100 µM (inactive)
Cc1cn(C2CC(N/C(=N/C#N)NCC3OC(n4cnc5c(N)ncnc54)CC3O)C(CO)O2)c(=O)[nH]c1=O (configuration not stated) | > 100 µM (inactive) | > 100 µM (inactive) | > 100 | 77.6 µM (inactive) | > 100 µM (inactive) | > 100 µM (inactive) | > 100 µM (inactive) | > 100 µM (inactive) | > 100 µM (inactive) | > 100 µM (inactive) | > 100 µM (inactive) | > 100 µM (inactive) | > 100 µM (inactive) | > 100 µM (inactive) | > 100 µM (inactive) | > 100 µM (inactive) | > 100 µM (inactive) | > 100 µM (inactive) | > 100 µM (inactive) | > 100 µM (inactive)
O=C(/C=C\c1ccccc1)N1CCc2ccccc2C1 | 51.4 µM (inactive) |  | 55.8 | 29.8 µM (inactive) | 31.3 µM (inactive) | 79.1 µM (inactive) | > 100 µM (inactive) |  | > 100 µM (inactive) | 34.9 µM (inactive) |  | 44.4 µM (inactive) | 29 µM (inactive) | 32.4 µM (inactive) | 43.4 µM (inactive) | 42.6 µM (inactive) | 60.3 µM (inactive) |  | 20.1 µM (inactive) | 27.2 µM (inactive)
